# Data from patent publication US5948764A, “Methods for treatment of multiple sclerosis utilizing peptide analogues of human myelin basic protein” (Neurocrine Biosciences, Inc., priority 1997, dated 1999).
# Where a SMILES comes first, the peptide text is derived from it. [ ]: non-standard residue; d: D form.
# B1: IFN-γ: cytokine administered in a pilot study in MS (protein, UniProt P01579 24-161, looked up)
# Interferon gamma: QDPYVKEAENLKKYFNAGHSDVADNGTLFLGILKNWKEESDRKIMQSQIVSFYFKLFKNFKDDQSIQKSVETIKEDMNVKFFNSNKKKRDDFEKLTNYSVTDLNVQRKAIHELIQVMAELSPAAKTGKRKRSQMLFRG
# Legend:
# EAE [1] = details: single 250 μg dose in CFA, pertussis toxin i.v. day 0 and 2
# Method: Similarly, mice are injected with a single, 250 μg dose of MBP (87-99) or A97 in CFA containing 500 μg of heat killed Mycobacterium. Pertussis toxin (400 ng/mouse) is injected i.v. at day 0 and day 2. Mice are assessed for disease symptoms as described above.
# EAE [2] = details: rat, in vivo
# [3] = tested on: lymph node cells from MBP 87-99 immunized rats; experiment: Antigen-specific lymph node cell proliferation, MBP 87-99 immunized rats; type: cell-based, Lewis rats; details: FIG. 3B, separate experiment
# Method: Within the second assay, draining lymph node cells from Lewis rats or SJL mice injected with MBP (87-99) may be used. Preferably, this assay is used in combination with the proliferation assay using T cell lines. Briefly, Lewis rats or SJL mice are injected subcutaneously with MBP (87-99) peptide in complete Freund's adjuvant. Nine to ten days later, draining lymph node cells are isolated and single-cell suspensions are prepared. Lymph node cells are incubated with various concentrations of peptide analogues for three days in a humidified air chamber containing 6.5% CO2. After incubation, the cultures are pulsed with 1-2 μCi of [^3 H]-thymidine for 12-18 hours. Cultures are harvested on fiberglass filters and counted in a scintillation counter. Mean CPM and the standard error of the mean are calculated from data determined in triplicate cultures. […] Peptide analogues which are suitable for further screening will preferably, at concentrations of at least 10 μM, cause stimulation to a level of at least 25% of the native peptide.
# Female Lewis rates, approximately six weeks old, are purchased from Harlan Sprague, Indianapolis, Ind. MBP peptides are dissolved in phosphate-buffered saline (PBS) and emulsified with an equal volume of complete Freund's adjuvant (Difco Laboratories, Inc., Detroit, Mich.) supplemented with 2 mg/ml of heat-killed Mycobacterium tuberculosis H37Ra in oil (Difco). […]
# [4] = tested on: Murine MBP-specific T cell clones (AG.1H8); experiment: Proliferation of murine MBP-specific T cell clone AG.1H8; type: cell-based; details: 72 hr, [3H]-thymidine
# Method: Murine MBP-specific T cell clones were also used as targets in proliferation assays. T cell clones (30,000 cells) were cultured for 72 hr in the presence of MBP 87-99, A97, or PLP 139-151 (myelin proteolipid protein), and irradiated, syngeneic spleen cells. For 18 hr prior to harvesting, [^3 H]-thymidine was added to each culture. Incorporated thymidine was determined.
# [5] = tested on: IL-2 stimulated T cell line reactive to MBP 87-99; experiment: Cytokine production by MBP 87-99 reactive T cell line (ELISA); type: cell-based, SJL; details: 48 hr; 10 μM PLP 139-151, 3 μM A97 or 3 μM MBP 87-99
# Method: Other suitable assays of antigen-specific T cell responses include induction of cytokine production, phosphorylation of the CD3 zeta chain, and induction of apoptosis. Briefly, for assaying cytokine production, an IL-2-stimulated T cell line, which is reactive to MBP […], is incubated with IL-2 and various MBP peptide analogues. Cytokine release is measured at 48 hr. Cytokines are measured by ELISA, or alternatively, RNA expression of cytokines may be measured by Northern blot, RNase probe protection or other standard hybridization methods. Cytokines to be assayed include IL-1 through IL-14, γ-IFN, TNF, and the like. Phosphorylation of the CD3 zeta chain is assayed in MBP 87-89-specific T cells. Briefly, cells are co-incubated with antigen-presenting cells, such as T-depleted splenocytes, which have been pulsed with MBP 87-99 or peptide analogue. Cells are then lysed, and the zeta chain is immunoprecipitated and electrophoresed on an SDS-PAGE gel. The […] may be detected with an antibody. In a third assay, apoptosis may be induced in an antigen-specific manner. For this assay, an MBP stimulated T cell line is incubated with IL-2 and various peptides. Cell loss is measured by flow cytometry or other standard method.
# Cytokine production by an IL-2 stimulated T cell line, which is reactive to MBP 87-99, is measured in response to various peptides and peptide analogues. The activated T cell line is co-cultured for 48 hr with a 10-fold excess of irradiated (3000 Rads) SJL T cell-depleted spleen cells, 50 IU/ml human rIL-2 and 10 μM PLP 139-151, 3 μM A97, or 3 μM MBP 87-99. Cytokine release is measured by ELISA.
# multiple sclerosis = details: in vivo; cited from earlier work
molecule,measurement,setting,value
CC[C@H](C)[C@H](NC(=O)[C@H](CC(N)=O)NC(=O)[C@H](CCCCN)NC(=O)[C@H](Cc1ccccc1)NC(=O)[C@H](Cc1ccccc1)NC(=O)[C@H](Cc1c[nH]cn1)NC(=O)[C@@H](NC(=O)[C@@H](N)C(C)C)C(C)C)C(=O)N[C@H](C(=O)N[C@H](C(=O)N1CCC[C@H]1C(=O)N[C@@H](C)C(=O)N[C@H](C(=O)N1CCC[C@H]1C(=O)O)[C@@H](C)O)[C@@H](C)O)C(C)C [A97] (H-VVHFFKNIVTPATP-OH),animals developing disease,EAE [1],5/5
same,mean clinical score following injection,EAE [1]; FIG. 11,increased mean clinical score
CC[C@H](C)[C@H](NC(=O)[C@H](CC(N)=O)NC(=O)[C@H](CCCCN)NC(=O)[C@H](Cc1ccccc1)NC(=O)[C@H](Cc1ccccc1)NC(=O)[C@@H](Cc1c[nH]cn1)NC(=O)[C@@H](NC(=O)[C@@H](N)C(C)C)C(C)C)C(=O)N[C@H](C(=O)N[C@H](C(=O)N1CCC[C@H]1C(=O)N[C@@H](CCCNC(=N)N)C(=O)N[C@H](C(=O)N1CCC[C@H]1C(=O)O)[C@@H](C)O)[C@@H](C)O)C(C)C [h88] (H-VV[dH]FFKNIVTPRTP-OH),induction of EAE,EAE [2],does not induce EAE in rats
CC[C@H](C)[C@H](NC(=O)[C@@H]1CCCN1C(=O)[C@@H](NC(=O)[C@@H](N)Cc1ccccc1)C(C)C)C(=O)N[C@@H](Cc1ccccc1)C(=O)N[C@H](C(=O)N[C@@H](Cc1ccc(O)cc1)C(=O)NCC(=O)N[C@@H](CCC(=O)O)C(=O)N[C@@H](CC(C)C)C(=O)N[C@@H](CCC(N)=O)C(=O)N[C@@H](CCCNC(=N)N)C(=O)N[C@@H](CCSC)C(=O)N[C@@H](CCC(N)=O)C(=O)N[C@@H](CCC(=O)O)C(=O)N[C@@H](CCCCN)C(=O)N[C@@H](CCC(=O)O)C(=O)N[C@@H](CCCNC(=N)N)C(=O)N[C@@H](CC(N)=O)C(=O)N[C@@H](CCCCN)C(=O)NCC(=O)N[C@@H](CCC(N)=O)C(=O)O)[C@@H](C)O [motlin],proliferative response of lymph node cells,[3],not
"PLP 139-151: myelin proteolipid protein peptide 139-151, control peptide (CHCLGKWLGHPDK; UniProt P60202 139-151, looked up, fragment)",Proliferation,[4]; 10 μM peptide,0.15 ± 0.03 CPM × 10^-3
same,Proliferation,[4]; 50 μM peptide,0.26 ± 0.12 CPM × 10^-3
same,IL-2 release,[5],1646 pg/mL
same,IL-4 release,[5],2197 pg/mL
same,γ-IFN release,[5],3073 pg/mL
B1,patients with a clinical exacerbation,multiple sclerosis,7 of 18
